Literature values, collected in patent US6919335B2, “Heterocycles that are inhibitors of IMPDH enzyme” (Bristol-Myers Squibb Co., priority 2000, dated 2005).
Read-outs that look alike come from different tables or passages of the source.

What was measured:
[1] = tested on: antigen-specific T lymphocyte responses; details: for % inhibition of proliferation: Rol plus MPA; for synergistic effect on inhibition of antigen-induced proliferation: in combination with Rol 10^−7 M; for approximate IC10: inhibition of antigen-induced proliferation
IMPDH types I and II = details: RT-PCR, low and high concentrations, alone or both
[2] = tested on: proinflammatory cytokines (IL-2, IL-4, and IFN); details: RT-PCR; Rol 10^−7 M, MPA 10^−8 M, or the combination

| Compound | % inhibition of proliferation ([1]; with deoxyguanosine (antagonist of MPA on IMPDH), p<0.05) [%] | % inhibition of proliferation ([1]; without deoxyguanosine) [%] | synergistic effect on inhibition of antigen-induced proliferation [1] | gene expression for IMPDH types I and II (IMPDH types I and II) | downregulation in the generation of proinflammatory cytokines [2] | approximate IC10 [1] |
| --- | --- | --- | --- | --- | --- | --- |
| COc1c(C)c2c(c(O)c1C/C=C(\C)CCC(=O)O)C(=O)OC2 [MPA, mycophenolic acid] | 35±12 | 81±16 | marked synergistic effect | remained unaffected | no significant downregulation |  |
| CCCC(=O)Nc1ncnc2c1ncn2[C@@H]1O[C@@H]2COP(=O)(O)O[C@H]2[C@H]1OC(=O)CCC [dibuteryl-cAMP] |  |  |  |  |  | ~2e-06 M |
| COc1ccc(C2CNC(=O)C2)cc1OC1CCCC1 (stereo not shown) [rolipram, 4-[3-(cyclopentyloxy)-4-methoxy-phenyl]-2-pyrrolidinone] |  |  |  | remained unaffected | no significant downregulation | ~10^−7 M |
| C=CC[C@@H]1/C=C(\C)C[C@H](C)C[C@H](OC)[C@H]2O[C@@](O)(C(=O)C(=O)N3CCCC[C@H]3C(=O)O[C@H](/C(C)=C/[C@@H]3CC[C@@H](O)[C@H](OC)C3)[C@H](C)[C@@H](O)CC1=O)[C@H](C)C[C@@H]2OC [tacrolimus] |  |  | little or no synergistic effect |  |  |  |
